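Exposure lasted 48 hours, with cells grown in 96-well plates and compounds tested at five concentrations. At the GI50, growth is halved.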 The source made the active and inactive calls. No stated cut-off is given here; in the data, active = GI50 up to about 1.1 µM and inactive = higher. Residues, ends and D or L forms follow the SMILES beside them. *: point of attachment. Boc = CC(C)(C)OC(=O)*; Bz = O=C(c1ccccc1)*
Assays:
Assay in all cases: NCI tumour cell line growth inhibition, 48 h
[1] = tested on: Hs-578T
[2] = tested on: NCI-H460
[3] = tested on: LOX IMVI
[4] = tested on: SK-OV-3
[5] = tested on: UACC-62
[6] = tested on: CAKI-1
[7] = tested on: HOP-62
[8] = tested on: SK-MEL-2
[9] = tested on: SF-539
[10] = tested on: EKVX
[11] = tested on: MCF7
[12] = tested on: U-251
[13] = tested on: IGROV-1
[14] = tested on: SNB-19
[15] = tested on: K562
[16] = tested on: A498
[17] = tested on: SF-295
[18] = tested on: DU-145
[19] = tested on: SN12C
[20] = tested on: NCI-H226

SMILES	GI50 [1]	GI50 [2]	GI50 [3]	GI50 [4]	GI50 [5]	GI50 [6]	GI50 [7]	GI50 [8]	GI50 [9]	GI50 [10]	GI50 [11]	GI50 [12]	GI50 [13]	GI50 [14]	GI50 [15]	GI50 [16]	GI50 [17]	GI50 [18]	GI50 [19]	GI50 [20]
CCN(CC)c1ccc(/C=C/c2ccnc3ccccc23)cc1	> 100 µM (inactive)	> 100 µM (inactive)	> 100 µM (inactive)	> 100 µM (inactive)	> 100 µM (inactive)	> 100 µM (inactive)	> 100 µM (inactive)	> 100 µM (inactive)	> 100 µM (inactive)	> 100 µM (inactive)	> 100 µM (inactive)	> 100 µM (inactive)	> 100 µM (inactive)	> 100 µM (inactive)	> 100 µM (inactive)	> 100 µM (inactive)	> 100 µM (inactive)	> 100 µM (inactive)	> 100 µM (inactive)	–
O=S(=O)(O)c1ccc(Nc2ccnc3ccccc23)cc1	> 100 µM (inactive)	–	> 100 µM (inactive)	> 100 µM (inactive)	> 100 µM (inactive)	> 100 µM (inactive)	> 100 µM (inactive)	> 100 µM (inactive)	> 100 µM (inactive)	> 100 µM (inactive)	> 100 µM (inactive)	> 100 µM (inactive)	> 100 µM (inactive)	> 100 µM (inactive)	> 100 µM (inactive)	> 100 µM (inactive)	> 100 µM (inactive)	> 100 µM (inactive)	> 100 µM (inactive)	> 100 µM (inactive)
CCC[N+](C)(C)CCCNC(=O)c1c(O)c2ccccc2[nH]c1=O	> 100 µM (inactive)	> 100 µM (inactive)	> 100 µM (inactive)	> 100 µM (inactive)	> 100 µM (inactive)	> 100 µM (inactive)	> 100 µM (inactive)	> 100 µM (inactive)	> 100 µM (inactive)	> 100 µM (inactive)	> 100 µM (inactive)	> 100 µM (inactive)	89.1 µM (inactive)	–	> 100 µM (inactive)	> 100 µM (inactive)	> 100 µM (inactive)	> 100 µM (inactive)	> 100 µM (inactive)	77.1 µM (inactive)
Cc1ccc([N+](=O)[O-])cc1S(=O)(=O)Nc1ccc(C2=NOC(c3ccccc3)C2)cc1 (stereo unspecified)	19.8 µM (inactive)	5.52 µM (inactive)	10.9 µM (inactive)	11.5 µM (inactive)	3.85 µM (inactive)	7.1 µM (inactive)	5.3 µM (inactive)	3.65 µM (inactive)	9.77 µM (inactive)	17.7 µM (inactive)	3.25 µM (inactive)	–	5.48 µM (inactive)	10.1 µM (inactive)	1.96 µM (inactive)	4.03 µM (inactive)	3.17 µM (inactive)	12 µM (inactive)	12.9 µM (inactive)	24.9 µM (inactive)
CCOP(=O)(OCC)/C(=C\n1ccc(=O)[nH]c1=S)C(=O)OC	66.2 µM (inactive)	> 100 µM (inactive)	> 100 µM (inactive)	> 100 µM (inactive)	> 100 µM (inactive)	> 100 µM (inactive)	> 100 µM (inactive)	> 100 µM (inactive)	> 100 µM (inactive)	> 100 µM (inactive)	> 100 µM (inactive)	> 100 µM (inactive)	> 100 µM (inactive)	–	> 100 µM (inactive)	> 100 µM (inactive)	> 100 µM (inactive)	> 100 µM (inactive)	> 100 µM (inactive)	> 100 µM (inactive)
CC(=O)OCc1nc(C#N)c(N)o1	> 100 µM (inactive)	> 100 µM (inactive)	> 100 µM (inactive)	> 100 µM (inactive)	> 100 µM (inactive)	> 100 µM (inactive)	> 100 µM (inactive)	> 100 µM (inactive)	–	> 100 µM (inactive)	> 100 µM (inactive)	> 100 µM (inactive)	> 100 µM (inactive)	> 100 µM (inactive)	> 100 µM (inactive)	> 100 µM (inactive)	> 100 µM (inactive)	> 100 µM (inactive)	> 100 µM (inactive)	> 100 µM (inactive)
CSc1ccc(-c2cc(-c3nc4ccccc4[nH]3)no2)cc1	37.1 µM (inactive)	18.4 µM (inactive)	24.3 µM (inactive)	70.5 µM (inactive)	16.4 µM (inactive)	23.6 µM (inactive)	34.4 µM (inactive)	20.4 µM (inactive)	24.7 µM (inactive)	24.7 µM (inactive)	9.02 µM (inactive)	–	23.2 µM (inactive)	40.3 µM (inactive)	22.1 µM (inactive)	30.8 µM (inactive)	28.7 µM (inactive)	13.6 µM (inactive)	50.2 µM (inactive)	40.5 µM (inactive)
Cc1ccc(NC(=O)CC(=O)n2nc(C)c(/N=N/c3cccc(C)c3)c2C)cc1	38.5 µM (inactive)	> 100 µM (inactive)	> 100 µM (inactive)	> 100 µM (inactive)	> 100 µM (inactive)	> 100 µM (inactive)	65.8 µM (inactive)	> 100 µM (inactive)	> 100 µM (inactive)	31 µM (inactive)	> 100 µM (inactive)	> 100 µM (inactive)	> 100 µM (inactive)	71.1 µM (inactive)	–	> 100 µM (inactive)	> 100 µM (inactive)	> 100 µM (inactive)	> 100 µM (inactive)	> 100 µM (inactive)
N#Cc1ccc(Oc2nc3ccc(C(F)(F)F)cc3nc2-c2ccccc2)cc1	20.6 µM (inactive)	17.6 µM (inactive)	27.2 µM (inactive)	12.5 µM (inactive)	32.6 µM (inactive)	22.6 µM (inactive)	20.3 µM (inactive)	19.5 µM (inactive)	29.8 µM (inactive)	14.3 µM (inactive)	20.4 µM (inactive)	17.2 µM (inactive)	18.8 µM (inactive)	21.8 µM (inactive)	22.1 µM (inactive)	15.7 µM (inactive)	24.8 µM (inactive)	17.8 µM (inactive)	20.6 µM (inactive)	–
CNC(=O)/C=C/C1=CN2C(=O)c3ccc(C)c(O)c3NC(OC)C2C1 (stereo unspecified)	< 0.0145 µM (active)	0.0135 µM (active)	< 0.0142 µM (active)	< 0.0206 µM (active)	< 0.0124 µM (active)	< 0.0166 µM (active)	< 0.0143 µM (active)	0.0125 µM (active)	< 0.0135 µM (active)	0.0163 µM (active)	< 0.0163 µM (active)	< 0.0161 µM (active)	0.016 µM (active)	< 0.0152 µM (active)	–	0.0533 µM (active)	0.0168 µM (active)	< 0.01 µM (active)	< 0.01 µM (active)	0.0141 µM (active)
O=C(Cc1ccccc1)c1ccc2[nH]c(=O)oc2c1	1.03 µM (active)	38.8 µM (inactive)	52.1 µM (inactive)	76.2 µM (inactive)	58.5 µM (inactive)	59.6 µM (inactive)	90.6 µM (inactive)	32.6 µM (inactive)	32.2 µM (inactive)	12.5 µM (inactive)	43.5 µM (inactive)	16.8 µM (inactive)	9.53 µM (inactive)	–	31 µM (inactive)	> 100 µM (inactive)	38.2 µM (inactive)	62.2 µM (inactive)	> 100 µM (inactive)	1.22 µM (inactive)
O=C(Nc1cccc([N+](=O)[O-])c1)c1nnn(-c2cccc([N+](=O)[O-])c2)c1O	> 100 µM (inactive)	–	> 100 µM (inactive)	> 100 µM (inactive)	> 100 µM (inactive)	> 100 µM (inactive)	> 100 µM (inactive)	> 100 µM (inactive)	0.0322 µM (active)	> 100 µM (inactive)	> 100 µM (inactive)	> 100 µM (inactive)	> 100 µM (inactive)	> 100 µM (inactive)	> 100 µM (inactive)	> 100 µM (inactive)	> 100 µM (inactive)	> 100 µM (inactive)	> 100 µM (inactive)	> 100 µM (inactive)
COc1cc([C@@H]2OC[C@@H]3C(c4cc(OC)c5c(c4)OCO5)OC[C@@H]32)cc(OC)c1OC (stereo partly specified)	> 100 µM (inactive)	> 100 µM (inactive)	> 100 µM (inactive)	> 100 µM (inactive)	49.1 µM (inactive)	> 100 µM (inactive)	> 100 µM (inactive)	> 100 µM (inactive)	> 100 µM (inactive)	> 100 µM (inactive)	> 100 µM (inactive)	> 100 µM (inactive)	> 100 µM (inactive)	> 100 µM (inactive)	> 100 µM (inactive)	> 100 µM (inactive)	> 100 µM (inactive)	> 100 µM (inactive)	–	> 100 µM (inactive)
CC(NC(=O)C(Cc1ccc(OC(=O)c2ccccc2)cc1)NC(=O)OC(C)(C)C)C(=O)NC(Cc1ccccc1)C(=O)NCC(N)=O (stereo unspecified) (Boc-Y(Bz)AFG-NH2; configuration not given here)	20.3 µM (inactive)	18.3 µM (inactive)	22 µM (inactive)	19.2 µM (inactive)	18.8 µM (inactive)	> 100 µM (inactive)	14.9 µM (inactive)	17.9 µM (inactive)	24.9 µM (inactive)	–	19.5 µM (inactive)	17.8 µM (inactive)	20.4 µM (inactive)	18.6 µM (inactive)	25.8 µM (inactive)	21.6 µM (inactive)	18.7 µM (inactive)	20.4 µM (inactive)	21.1 µM (inactive)	20.9 µM (inactive)
